Laboratory results from patent US9663502B2, “2-Acylamidomethyl and sulfonylamidomethyl benzoxazine carbamates for inhibition of RORgamma activity and the treatment of disease” (Merck Sharp & Dohme Corp., priority 2013, dated 2017).

Molecular target: human RORgammaT-Ligand Binding Domain (LBD) (Homo sapiens (Human), UniProt P51449)
Assay: RORγ-Ligand Binding Domain TR-FRET Assay (co-activator peptide SRC1_2 recruitment)
Type: biochemical

Sequence of human RORgammaT-Ligand Binding Domain (LBD) (P51449 269-508): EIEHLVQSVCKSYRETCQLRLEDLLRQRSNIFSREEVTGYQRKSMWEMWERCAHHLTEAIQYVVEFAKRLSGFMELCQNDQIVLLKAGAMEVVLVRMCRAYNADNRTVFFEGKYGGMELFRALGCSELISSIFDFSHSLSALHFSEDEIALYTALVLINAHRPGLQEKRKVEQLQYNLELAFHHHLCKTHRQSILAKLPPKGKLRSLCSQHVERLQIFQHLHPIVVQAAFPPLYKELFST

- IC50: 0.113 µM
Compound: CC(=O)NC[C@H]1CN(S(=O)(=O)c2ccc(F)cc2)c2cc(NC(=O)OC(C3CCCCC3)C(F)(F)F)ccc2O1 (stereo partly drawn) [Example 23D, 1-cyclohexyl-2,2,2-trifluoroethyl ((S)-2-(acetamidomethyl)-4-((4-fluorophenyl)sulfonyl)-3,4-dihydro-2H-benzo[b][1,4]oxazin-6-yl)carbamate]
